Results published in US10183914B2 (BAYER CROPSCIENCE AKTIENGESELLSCHAFT, priority 2014, dated 2019).

Legend:
[1] = test system: Triticum aestivum (spring); assay: Post-emergence herbicidal effect and crop plant compatibility; format: in vivo; conditions: visual scoring after about 3 weeks
Description: (§1) Seeds of monocotyledonous and dicotyledonous weed and crop plants are laid out in sandy loam in wood-fiber pots, covered with soil and cultivated in a greenhouse under good growth conditions. 2 to 3 weeks after sowing, the test plants are treated at the one-leaf stage. The compounds of the invention, formulated in the form of wettable powders (WP) or as emulsion concentrates (EC), are then sprayed onto the green parts of the plants as aqueous suspension or emulsion at a water application rate equating to 600 to 800 L/ha with addition of 0.2% wetting agent. After the trial plants have been left to stand in a greenhouse under optimal growth conditions for about 3 weeks, the efficacy of the formulations is scored visually in comparison to untreated controls (herbicidal action in percent (%): 100% efficacy=the plants have died, 0% efficacy=like control plants).

Zea mays [2] = assay: as above; format: in vivo; conditions: visual scoring after about 3 weeks
Description: as §1

Oryza sativa [3] = assay: as above; format: in vivo; conditions: visual scoring after about 3 weeks
Description: as §1

[4] = logp (HCOOH), physicochemical characterization
[5] = test system: Triticum aestivum (spring); assay: Pre-emergence herbicidal effect and crop plant compatibility; format: in vivo; conditions: 3 weeks
Description: (§2) Seeds of monocotyledonous and dicotyledonous weed plants and crop plants are laid out in wood-fiber pots in sandy loam and covered with soil. The compounds of the invention, formulated in the form of wettable powders (WP) or as emulsion concentrates (EC), are then applied to the surface of the covering soil as aqueous suspension or emulsion at a water application rate equating to 600 to 800 L/ha with addition of 0.2% wetting agent.
(§3) After the treatment, the pots are placed in a greenhouse and kept under good growth conditions for the trial plants. The damage to the trial plants is scored visually after a trial duration of 3 weeks by comparison with untreated controls (herbicidal activity in percent (%): 100% efficacy=the plants have died, 0% efficacy=like control plants).

Zea mays [6] = assay: as above; format: in vivo; conditions: 3 weeks
Description: as §2, §3

Oryza sativa [7] = assay: as above; format: in vivo; conditions: 3 weeks
Description: as §2, §3

Ipomoea purpurea = assay: Post-emergence herbicidal effect; format: in vivo; conditions: 320 g/ha (dose by row order of upper half), scoring after about 3 weeks
Description: as §1

Setaria viridis = assay: Pre-emergence herbicidal effect; format: in vivo; conditions: 3 weeks
Description: as §2, §3

Amaranthus retroflexus = assay: Pre-emergence herbicidal effect; format: in vivo; conditions: 3 weeks
Description: as §2, §3

Polygonum convolvulus = assay: Pre-emergence herbicidal effect; format: in vivo; conditions: 3 weeks
Description: as §2, §3

Alopecurus myosuroides = assay: Pre-emergence herbicidal effect; format: in vivo; conditions: 320 g/ha, 3 weeks
Description: as §2, §3

Lolium multiflorum = assay: Pre-emergence herbicidal effect; format: in vivo; conditions: 320 g/ha, 3 weeks
Description: as §2, §3

Echinochloa crus-galli [8] = assay: Pre-emergence herbicidal effect; format: in vivo; conditions: 3 weeks
Description: as §2, §3

Veronica persica = assay: Pre-emergence herbicidal effect; format: in vivo; conditions: 3 weeks
Description: as §2, §3

Viola tricolor = assay: Pre-emergence herbicidal effect; format: in vivo; conditions: 3 weeks
Description: as §2, §3

Stellaria media = assay: Pre-emergence herbicidal effect; format: in vivo; conditions: 3 weeks
Description: as §2, §3

Matricaria inodora = assay: Pre-emergence herbicidal effect; format: in vivo; conditions: 3 weeks
Description: as §2, §3

Avena fatua = assay: Pre-emergence herbicidal effect; format: in vivo; conditions: 1280 g/ha, 3 weeks
Description: as §2, §3

Echinochloa crus-galli [9] = assay: Post-emergence herbicidal effect; format: in vivo; conditions: 320 g/ha, visual scoring after about 3 weeks
Description: as §1

| Structure (SMILES) | post-emergence efficacy TRZAS ([1]; 80 g/ha) [%] | post-emergence efficacy TRZAS ([1]; 320 g/ha) [%] | post-emergence efficacy ZEAMX (Zea mays [2]; 80 g/ha) [%] | post-emergence efficacy ZEAMX (Zea mays [2]; 320 g/ha) [%] | post-emergence efficacy ORYSA (Oryza sativa [3]; 80 g/ha) [%] | post-emergence efficacy ORYSA (Oryza sativa [3]; 320 g/ha) [%] | TRZAS herbicidal activity in percent ([5]; 320 g/ha) [%] | ZEAMX herbicidal activity in percent (Zea mays [6]; 320 g/ha) [%] | ORYSA herbicidal activity in percent (Oryza sativa [7]; 320 g/ha) [%] | SETVI herbicidal activity in percent (Setaria viridis; 320 g/ha) [%] | AMARE herbicidal activity in percent (Amaranthus retroflexus; 320 g/ha) [%] | POLCO herbicidal activity in percent (Polygonum convolvulus; 320 g/ha) [%] | LOLMU herbicidal activity in percent (Lolium multiflorum) [%] | ECHCG herbicidal activity in percent (Echinochloa crus-galli [8]; 320 g/ha) [%] | VERPE herbicidal activity in percent (Veronica persica; 320 g/ha) [%] | VIOTR herbicidal activity in percent (Viola tricolor; 320 g/ha) [%] | STEME herbicidal activity in percent (Stellaria media; 320 g/ha) [%] | MATIN herbicidal activity in percent (Matricaria inodora; 320 g/ha) [%] | TRZAS herbicidal activity in percent ([5]; 80 g/ha) [%] | ZEAMX herbicidal activity in percent (Zea mays [6]; 80 g/ha) [%] | also measured |
| --- | --- | --- | --- | --- | --- | --- | --- | --- | --- | --- | --- | --- | --- | --- | --- | --- | --- | --- | --- | --- | --- |
| CC1(C)CC(=O)c2cnc(NC3CCOc4ccccc43)nc2C1 (racemic) [2.94] | 10 | 20 | 0 | 0 | 0 | 0 | 0 | 0 | 0 | 90 | 100 | 100 | 90 | 100 | 100 | 100 | 100 | 100 | – | – | logp (HCOOH) [4]: oily; logp (HCOOH): 2.97; 1H-NMR (CDCl3, 400 MHZ, δ in ppm): 1.10 (s, 6H,; post-emergence efficacy PHBPU (Ipomoea purpurea): 80%; ALOMY herbicidal activity in percent (Alopecurus myosuroides): 80% |
| CC(=O)c1cnc(N[C@@H]2CCc3c(F)cccc32)nc1 [1.90] | – | – | – | – | – | – | 0 | 20 | 20 | – | 90 | – | – | – | 100 | – | 80 | 100 | – | – | logp (HCOOH) [4]: solid; m.p.: 111.5° C.; logp (HCOOH): 2.43; 1H-NMR (CDCl3, 400 MHZ, δ in ppm:; TRZAS herbicidal activity in percent ([5]; 1280 g/ha): 0%; ZEAMX herbicidal activity in percent (Zea mays [6]; 1280 g/ha): 20%; ORYSA herbicidal activity in percent (Oryza sativa [7]; 1280 g/ha): 20%; AMARE herbicidal activity in percent (Amaranthus retroflexus; 1280 g/ha): 100%; POLCO herbicidal activity in percent (Polygonum convolvulus; 1280 g/ha): 90%; AVEFA herbicidal activity in percent (Avena fatua): 100%; ECHCG herbicidal activity in percent (Echinochloa crus-galli [8]; 1280 g/ha): 80%; VERPE herbicidal activity in percent (Veronica persica; 1280 g/ha): 100%; VIOTR herbicidal activity in percent (Viola tricolor; 1280 g/ha): 100%; STEME herbicidal activity in percent (Stellaria media; 1280 g/ha): 100%; MATIN herbicidal activity in percent (Matricaria inodora; 1280 g/ha): 100% |
| CC(C)C1CC(=O)c2cnc(N[C@@H]3CCCc4ccccc43)nc2C1 (stereo partly drawn) [2.102] | 20 | – | 0 | 0 | 0 | 0 | 0 | 0 | 0 | 100 | 100 | 90 | 100 | 100 | 100 | 100 | 100 | 100 | 0 | 0 | ORYSA herbicidal activity in percent (Oryza sativa [7]; 80 g/ha): 0%; post-emergence efficacy ECHCG (Echinochloa crus-galli [9]): 100%; SETVI herbicidal activity in percent (Setaria viridis; 80 g/ha): 100%; AMARE herbicidal activity in percent (Amaranthus retroflexus; 80 g/ha): 80%; ALOMY herbicidal activity in percent (Alopecurus myosuroides): 100%; VERPE herbicidal activity in percent (Veronica persica; 80 g/ha): 100%; VIOTR herbicidal activity in percent (Viola tricolor; 80 g/ha): 100%; STEME herbicidal activity in percent (Stellaria media; 80 g/ha): 100%; MATIN herbicidal activity in percent (Matricaria inodora; 80 g/ha): 90% |
| CC1(C)CC(=O)c2cnc(N[C@@H]3CCCc4ccccc43)nc2C1 [2.25, 7,7-dimethyl-2-[(1R)-1,2,3,4-tetrahydronaphthalen-1-ylamino]-7,8-dihydroquinazolin-5(6H)-one] | 10 | 20 | 0 | 0 | 0 | 0 | – | 0 | 0 | 100 | 100 | 100 | – | 100 | 100 | 100 | 100 | 100 | 0 | 0 | chromatographic logP ([4]; HCOOH (formic acid)): 3.71; ORYSA herbicidal activity in percent (Oryza sativa [7]; 80 g/ha): 0%; post-emergence efficacy PHBPU (Ipomoea purpurea): 90%; AMARE herbicidal activity in percent (Amaranthus retroflexus; 80 g/ha): 90%; VERPE herbicidal activity in percent (Veronica persica; 80 g/ha): 100%; VIOTR herbicidal activity in percent (Viola tricolor; 80 g/ha): 100%; STEME herbicidal activity in percent (Stellaria media; 80 g/ha): 100%; MATIN herbicidal activity in percent (Matricaria inodora; 80 g/ha): 90% |
| Cc1ccc2c(c1)[C@H](Nc1ncc3c(n1)CC(C(C)C)CC3=O)[C@@H](C)C2 (stereo partly drawn) [2.104] | 0 | 0 | 0 | 0 | 0 | 0 | – | 0 | 20 | 100 | 100 | 100 | 90 | – | 100 | 100 | 100 | 100 | 0 | 0 | ORYSA herbicidal activity in percent (Oryza sativa [7]; 80 g/ha): 20%; VERPE herbicidal activity in percent (Veronica persica; 80 g/ha): 100%; VIOTR herbicidal activity in percent (Viola tricolor; 80 g/ha): 90%; STEME herbicidal activity in percent (Stellaria media; 80 g/ha): 100%; MATIN herbicidal activity in percent (Matricaria inodora; 80 g/ha): 80% |
